Test results taken from publication PMC4554882 (Bioorganic & medicinal chemistry, 2015).
Values after ≈ are worked out from the molar mass of the structure shown. Read-outs that look alike come from different tables or passages of the source.

How the values were obtained:
[1] = test system: human tumor cell lines (A549, KB, KBvin, DU145); test: SRB cytotoxicity, HTCL panel as a whole; type: cell-based; conditions: read-out: GI50 values across the HTCL panel, range over A549, KB
[2] = Aqueous solubility; type: physicochemical; conditions: pH 7.4, Solubility (μg/mL), mean ± SD of three experiments
[3] = test system: tubulin; test: Tubulin assembly inhibition; type: biochemical
[4] = test system: tubulin; test: Inhibition of [3H]colchicine binding to tubulin; conditions: tubulin 1 μM, [3H]colchicine 5 μM, 10 min at 37 °C
[5] = test system: tubulin; conditions: tubulin 1 μM, [3H]colchicine 5 μM, ref [14], cited from earlier work
[6] = test system: DU145 (prostate cancer); conditions: read-out: GI50 (μM ± SD) DU145, ref [14]; cited from earlier work

COc1ccc2c(c1)CCCN2c1nc(NCCCO)nc2ccccc12 [Compound 4a, N^1-(2′-(3-Hydroxypropyl)aminoquinazol-4′-yl)-6-methoxy-1,2,3,4-tetrahydro-quinoline]
GI50 [1]: 16 to 20 nM | solubility at 4 h [2]: 75 µg/mL (≈ 206 µM)

COc1ccc2c(c1)CCCN2c1nc(NC2CCCC2)nc2ccccc12 [Compound 4c]
GI50 [1]: 140 to 1420 nM

COc1ccc2c(c1)CCCN2c1cccc2cccnc12 [Compound 8d, 6-Methoxy-3,4-dihydro-2H-1,8′-biquinoline]
inhibitory activity in the assembly assay [3]: did not display significant inhibitory activity

COc1ccc(/C=C\c2cc(OC)c(OC)c(OC)c2)cc1O [CA-4, combretastatin A-4]
Inhibition of colchicine binding % Inhibition ± SD 1 μM ([4]; inhibitor 1 μM): 84 ± 0.3% | Inhibition of colchicine binding % Inhibition ± SD 5 μM ([4]; inhibitor 5 μM): 97 ± 0.4%

COc1ccc2c(c1)CCCN2c1nc(Cl)nc2ccccc12 [Compound 1a]
Inhibition of colchicine binding % Inhibition ± SD 1 μM ([5]; inhibitor 1 μM): 95 ± 0.7% | Inhibition of colchicine binding % Inhibition ± SD 5 μM ([5]; inhibitor 5 μM): 99 ± 0.6% | GI50 [6]: 0.0015 ± 0.0003 µM
